Common to all, as to assay type: in vivo, Crj:Wistar rat (male)
Assay [1] concerns gastric juice secretion. As to the kind of experiment: Anti-gastric juice secretion test, intraduodenal administration (pylorus ligation). The settings on record: 100 mg/kg intraduodenal, 4 h after pylorus ligation; for pH of gastric juice: control 1.7; for Amount of gastric juice: control 2.6; for Free hydrochloric acid: control 116; for Total acidity: control 168. As for the experimental part: Each 100 mg/kg of the test compounds was administered duodenally to a male Crj:Wistar rat of 205 to 240 g body weight fasted for ca. 24 hours (7 to 8 rats per group) and immediately after the dose the pylorus was ligated under diethyl ether anesthesia. Four hours after the ligation, the animal was killed and the stomach was isolated and the amount and the pH of gastric juice and free hydrochloric acid contained in it and the total acidity of it were measured to examine the effect of inhibiting gastric juice secretion. The test compounds were dosed after dissolved in physiological saline or in physiological saline containing Tween 80 added. Five […] of physiological saline was administered to the control group.

The test system of assay [2] is aspirin ulcer. As to the kind of experiment: Anti-aspirin ulcer test, oral administration. The following applies: 100 mg/kg oral, 6 h; for Gastric damage index: 30 min before aspirin 200 mg/kg oral, control 76.0; for inhibition in vivo at 100 mg/kg: Rattus norvegicus, gastric damage index vs control, aspirin 200 mg/kg, read-out: Inhibition rate. How it is done:
(§1) Each 100 mg/kg of the test compounds was administered orally to a male Crj:Wistar rat of 198 to 243 g body weight fasted for ca. 24 hours (7 to 8 rats per group) and 30 minutes after the administration 200 mg/5 ml/kg of aspirin suspended in 0.5% sodium CMC aqueous solution was administered orally. Six hours later the animals was killed by exsanguination and the cardia part of stomach was ligated and 10 ml of 1% formaline solution was poured into the stomach and the stomach was extirpated. Then, it was incised along the greater curvature side and washed with physiological saline and the major axis of the spotted and linear erosion and ulcer were measured under a steromicroscope and their total sum per head was calculated as the gastric damage index (mm) and the effect was judged by the inhibiting rate against the control group [(Gastric damage index of the control group-Gastric damage index of the test compound)/Gastric damage index of the control group×100]. 0.5 ml/body weight of 1% pontamine sky blue physiological saline was injected intravenously 10 minutes before the slaughter. The test compound was administered after dissolved in physiological saline or in physiological saline containing Tween 80 added. Five […] of physiological saline was administered to the control group.

Assay [3] deals with water immersion restriction stress ulcer. Put plainly: Water immersion restriction stress ulcer, oral administration. The following applies: for Gastric damage index: 30 min before 6 h water immersion stress, control 15.7; for inhibition in vivo at 100 mg/kg: Rattus norvegicus, 6 h, read-out: Inhibition rate. As for the experimental part: (§2) After the stress loading, the animal was killed by exsanguination and the cardia part of stomach was ligated and then 10 ml of 1% formalin was poured into the stomach and the stomach was extirpated. […] 0.5 ml/body weight of 1% pontamine sky blue physiological saline was injected intravenously 10 minutes before the slaughter. The test compound was administered after dissolved in physiological saline or in physiological saline containing Tween 80 added. Five […] of physiological saline was administered to the control group.

Assay [4] concerns gastric juice secretion. Put plainly: Anti-gastric juice secretion test, intraperitoneal administration (pylorus ligation). The following applies: 100 mg/kg intraperitoneal, 30 min before pylorus ligation.
Assay [5] deals with aspirin ulcer. Put plainly: Anti-aspirin ulcer test, intraperitoneal administration. As for the experimental part: as §1
Each 100 mg/kg of the test compound was abdominally injected to a male Crj:Wistar rat of 210 to 265 g body weight fasted for ca. 24 hours (7 to 8 rats per group) and the procedures were carried out in a same manner as in oral administration.

For assay [6], the system named is water immersion restriction stress ulcer. Put plainly: Water immersion restriction stress ulcer, intraperitoneal administration. The settings on record: 100 mg/kg intraperitoneal. How it is done: as §2
Where [7] appears, read: gastric damage index vs control, 100 mg/kg oral, water immersion stress.

Read-outs that look alike come from different tables or passages of the source.

For `CN(C(Cc1ccc(O)cc1)CN1CCC(OCc2ccc(Cl)c(Cl)c2)CC1)S(=O)(=O)c1cccc2cnccc12` (centres unmarked) [(8), N-{1-(p-hydroxybenzyl)-2-[4-(3,4-dichlorobenzyloxy)piperidino]ethyl}-N-methyl-5-isoquinoline sulfonamide], in the assay on gastric juice secretion [1], the “pH of gastric juice” value was 2.3, the “Amount of gastric juice” value was found to be 1.6 ml/100 g body weight, the Free hydrochloric acid worked out at 32 μEq/100 g body weight and the Total acidity was 68 μEq/100 g body weight. For the same compound, in the assay on aspirin ulcer [2], the Gastric damage index is recorded as 28.9 mm and the inhibition in vivo at 100 mg/kg was determined as 62%. In assay [3] (100 mg/kg oral), the Gastric damage index was determined as 6.5 mm. In addition, the inhibition in vivo at 100 mg/kg in assay [3] (po) came to 59%.

For `CN(C(Cc1ccc(O)cc1)CN1CCN(c2cccc(Cl)c2)CC1)S(=O)(=O)c1cccc2cnccc12` (centres unmarked) [(2), N-{2-[4-(m-chlorophenyl)piperazinyl]-1-(p-hydroxybenzyl)ethyl}-N-methyl-5-isoquinoline sulfonamide], in the assay on gastric juice secretion [1], the “pH of gastric juice” value is given as 2.1, the “Amount of gastric juice” value is 2.1 ml/100 g body weight, the Free hydrochloric acid is on record as 40 μEq/100 g body weight and the Total acidity is 92 μEq/100 g body weight. In the assay on aspirin ulcer [2], the Gastric damage index is 40.3 mm and the inhibition in vivo at 100 mg/kg worked out at 46%. Besides, the Gastric damage index in assay [3] (100 mg/kg oral) was 9.7 mm. The inhibition in vivo at 100 mg/kg in assay [3] (setting [7]) came to 38%.

Turning to `CN(C(Cc1ccc(OS(=O)(=O)c2cccc3cnccc23)cc1)CN1CCC(c2ccccc2)CC1)S(=O)(=O)c1cccc2cnccc12` (centres unmarked) [(10), N-{1-(p-(5-isoquinolinesulfonyloxy)benzyl]-2-(4-phenylpiperidino)ethyl}-N-methyl-5-isoquinoline sulfonamide], in the assay on gastric juice secretion [1], the “pH of gastric juice” value was 1.8, the “Amount of gastric juice” value is 2.4 ml/100 g body weight, the Free hydrochloric acid is 68 μEq/100 g body weight and the Total acidity worked out at 102 μEq/100 g body weight. Besides, in the assay on aspirin ulcer [2], the Gastric damage index was 48.3 mm and the inhibition in vivo at 100 mg/kg stood at 37%. This compound gave a Gastric damage index in assay [3] (100 mg/kg oral) of 11.2 mm. Moreover, in assay [3] (setting [7]), the inhibition in vivo at 100 mg/kg was found to be 29%.

Turning to `CN(C(Cc1ccc(OS(=O)(=O)c2cccc3cnccc23)cc1)C(=O)N1CCN(c2ccccc2)CC1)S(=O)(=O)c1cccc2cnccc12` (centres unmarked) [(13), N-[N,O-bis(5-isoquinolinesulfonyl)-N-methyltyrosyl]-4-phenylpiperizine], the “pH of gastric juice” value with gastric juice secretion [1] was found to be 2.3; with gastric juice secretion [4] (control 1.7), 2.4. Besides, the “Amount of gastric juice” value amounted to 1.9 ml/100 g body weight in the assay on gastric juice secretion [1] and 1.6 ml/100 g body weight in the assay with gastric juice secretion [4] (control 3.2). This compound had a Free hydrochloric acid in the assay on gastric juice secretion [4] (control 155) of 55 μEq/100 body weight. For the same compound, in the assay on gastric juice secretion [4] (control 208), the Total acidity was found to be 102 μEq/100 body weight. The Gastric damage index is reported as 30.3 mm in the assay on aspirin ulcer [2]; 17.6 mm in the assay with aspirin ulcer [5] (100 mg/kg intraperitoneal (abdominally injected), control 58.8); 5.4 mm in assay [3] (100 mg/kg oral); 6.4 mm in assay [6] (control 22.7). Besides, the inhibition in vivo at 100 mg/kg worked out at 60% in the assay on aspirin ulcer [2] and 66% in assay [3] (setting [7]). In addition, the Inhibition rate turned out to be 70% with aspirin ulcer [5] (gastric damage index vs control, 100 mg/kg intraperitoneal) and 72% in assay [6] (gastric damage index vs control).

Take `O=C(C(Cc1ccc(OS(=O)(=O)c2cccc3cnccc23)cc1)NS(=O)(=O)c1cccc2cnccc12)N1CCN(c2ccccc2)CC1` (centres unmarked) [(12), N-[N,O-bis(5-isoquinolinesulfonyl)tyrosyl]-4-phenylpiperizine]: in the assay on gastric juice secretion [1], the “pH of gastric juice” value is given as 2.1, the “Amount of gastric juice” value was determined as 2.2 ml/100 g body weight, the Free hydrochloric acid turned out to be 41 μEq/100 g body weight and the Total acidity turned out to be 80 μEq/100 g body weight. Moreover, in the assay on aspirin ulcer [2], the Gastric damage index is given as 43.5 mm and the inhibition in vivo at 100 mg/kg was determined as 43%. Moreover, the Gastric damage index in assay [3] (100 mg/kg oral) amounted to 9.4 mm. Further, the inhibition in vivo at 100 mg/kg in assay [3] (setting [7]) worked out at 40%.

As to `CN(C(Cc1ccc(O)cc1)CN1CCC(c2ccccc2)CC1)S(=O)(=O)c1cccc2cnccc12` (centres unmarked) [(11), N-[1-(p-hydroxybenzyl)-2-(4-phenylpiperidino)ethyl]-N-methyl-5-isoquinoline sulfonamide], in the assay on gastric juice secretion [1], the “pH of gastric juice” value worked out at 2.5, the “Amount of gastric juice” value was 1.5 ml/100 g body weight, the Free hydrochloric acid was 36 μEq/100 g body weight and the Total acidity is listed as 65 μEq/100 g body weight. In the assay on aspirin ulcer [2], the Gastric damage index was 27.3 mm and the inhibition in vivo at 100 mg/kg was determined as 64%. The Gastric damage index in assay [3] (100 mg/kg oral) worked out at 6.8 mm. The inhibition in vivo at 100 mg/kg in assay [3] (setting [7]) amounted to 57%.

Regarding `COc1ccc(CC(CN2CCC(OCc3ccc(Cl)c(Cl)c3)CC2)N(C)S(=O)(=O)c2cccc3cnccc23)cc1` (centres unmarked) [(9), N-{1-(p-methoxybenzyl)-2-[4-(3,4-dichlorobenzyloxy)piperidino]ethyl}-N-methyl-5-isoquinoline sulfonamide], in the assay on gastric juice secretion [1], the “pH of gastric juice” value is 2.1, the “Amount of gastric juice” value was 2.2 ml/100 g body weight, the Free hydrochloric acid amounted to 44 μEq/100 g body weight and the Total acidity came to 89 μEq/100 g body weight. For the same compound, in the assay with aspirin ulcer [2], the Gastric damage index is recorded as 45.4 mm and the inhibition in vivo at 100 mg/kg is 40%. For the same compound, in assay [3] (100 mg/kg oral), the Gastric damage index is 9.7 mm. For the same compound, the inhibition in vivo at 100 mg/kg in assay [3] (setting [7]) turned out to be 38%.

Regarding `O=S(=O)(NC(Cc1ccc(O)cc1)CN1CCCN(c2ccccc2)CC1)c1cccc2cnccc12` (centres unmarked) [(6), N-[1-(p-hydroxybenzyl)-2-(4-phenylhomopiperazinyl)ethyl]-5-isoquinolinesulfonamide], in the assay on gastric juice secretion [1], the “pH of gastric juice” value amounted to 1.8, the “Amount of gastric juice” value came out at 2.3 ml/100 g body weight, the Free hydrochloric acid worked out at 53 μEq/100 g body weight and the Total acidity stood at 87 μEq/100 g body weight. Besides, in the assay on aspirin ulcer [2], the Gastric damage index is 52.9 mm and the inhibition in vivo at 100 mg/kg was 30%. Also, the Gastric damage index in assay [3] (100 mg/kg oral) turned out to be 12.2 mm. Moreover, the inhibition in vivo at 100 mg/kg in assay [3] (setting [7]) stood at 22%.

In the case of `O=S(=O)(NC(Cc1ccc(O)cc1)CN1CCN(c2ccccc2)CC1)c1cccc2cnccc12` (centres unmarked) [(1), N-[1-(p-hydroxybenzyl)-2-(4-phenylpiperazinyl)ethyl]-5-isoquinoline sulfonamide], in the assay on gastric juice secretion [1], the “pH of gastric juice” value amounted to 2.0, the “Amount of gastric juice” value is given as 2.2 ml/100 g body weight, the Free hydrochloric acid was determined as 36 μEq/100 g body weight and the Total acidity came out at 71 μEq/100 g body weight. In addition, in the assay on aspirin ulcer [2], the Gastric damage index is given as 40.1 mm and the inhibition in vivo at 100 mg/kg amounted to 47%. Further, the Gastric damage index in assay [3] (100 mg/kg oral) was found to be 10.5 mm. Further, the inhibition in vivo at 100 mg/kg in assay [3] (setting [7]) was found to be 33%.

On to `O=S(=O)(NC(Cc1ccc(OS(=O)(=O)c2cccc3cnccc23)cc1)CN1CCN(c2ccc(F)cc2)CC1)c1cccc2cnccc12` (centres unmarked) [(3), N-{2-[4-(p-fluorophenyl)piperazinyl]-1-(p-(5-isoquinolinesulfonyloxy)benzyl]ethyl}-5-isoquinoline sulfonamide], for which, in the assay with gastric juice secretion [1], the “pH of gastric juice” value came to 1.8, the “Amount of gastric juice” value came to 2.5 ml/100 g body weight, the Free hydrochloric acid is given as 82 μEq/100 g body weight and the Total acidity came out at 140 μEq/100 g body weight. In the assay with aspirin ulcer [2], the Gastric damage index turned out to be 56.7 mm and the inhibition in vivo at 100 mg/kg was 25%. The compound also yielded a Gastric damage index in assay [3] (100 mg/kg oral) of 11.2 mm. Further, the inhibition in vivo at 100 mg/kg in assay [3] (setting [7]) was 29%.

The record behind these values is patent US5244895A, “Anti-ulcer agent” (Hidaka; Hiroyoshi, priority 1991, dated 1993).
